We go through two molecules from US20170209447A1, “Use of PNP Inhibitor to Treat Relapse of Malignancy after Hematopoietic Stem Cell Transplant” (Nitor Therapeutics, priority 2014, published 2017).

The target in experiment [1] is T1, human TLR3 (Homo sapiens, UniProt O15455).
T1 construct: expressed in transfected cells; host or cells: HEK293
T1 sequence (O15455 24-904): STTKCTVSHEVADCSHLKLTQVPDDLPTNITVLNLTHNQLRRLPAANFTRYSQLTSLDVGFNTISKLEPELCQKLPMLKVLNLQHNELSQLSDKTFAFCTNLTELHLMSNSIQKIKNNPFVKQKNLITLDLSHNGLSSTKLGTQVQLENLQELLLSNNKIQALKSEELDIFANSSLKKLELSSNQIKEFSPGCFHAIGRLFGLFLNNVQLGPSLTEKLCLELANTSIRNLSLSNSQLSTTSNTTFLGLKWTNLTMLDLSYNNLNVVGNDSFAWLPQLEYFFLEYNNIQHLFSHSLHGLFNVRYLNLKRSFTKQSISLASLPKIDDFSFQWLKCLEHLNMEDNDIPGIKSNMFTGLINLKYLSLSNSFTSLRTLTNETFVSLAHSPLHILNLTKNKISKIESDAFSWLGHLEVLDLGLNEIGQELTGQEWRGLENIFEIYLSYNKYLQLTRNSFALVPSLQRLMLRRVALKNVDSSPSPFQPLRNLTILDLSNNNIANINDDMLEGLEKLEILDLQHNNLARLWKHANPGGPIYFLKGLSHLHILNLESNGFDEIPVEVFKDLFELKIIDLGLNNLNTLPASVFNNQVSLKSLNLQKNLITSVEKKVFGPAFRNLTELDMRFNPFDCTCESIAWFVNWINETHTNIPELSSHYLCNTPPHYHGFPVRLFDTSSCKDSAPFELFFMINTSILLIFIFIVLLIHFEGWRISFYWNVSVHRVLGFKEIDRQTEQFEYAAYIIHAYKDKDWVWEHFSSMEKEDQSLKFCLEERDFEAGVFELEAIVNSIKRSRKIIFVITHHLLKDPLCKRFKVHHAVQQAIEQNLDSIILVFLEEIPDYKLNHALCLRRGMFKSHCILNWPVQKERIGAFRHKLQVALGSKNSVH
Description: TLR ligand screening: NF-κB SEAP reporter in HEK293 cells expressing TLR3. It is filed as cell-based. Conditions: one concentration: NTR001 10 uM, Inosine 100 uM, triplicate, FIG. 2. Here is the method:
(§1) Toll-Like Receptor (TLR) Ligand Screening: In-vitro Activity of the PNPi, Guanosine and Inosine on Seven Different Human TLRs (TLR2, 3, 4, 5, 7, 8 and 9) as a Potential Agonist.
(§2) Method: TLR stimulation is tested by assessing NF-KB activation in HEK293 cells expressing a given TLR. The Secreted Embryonic Alkaline Phosphatase (SEAP) reporter is under the control of a promoter inducible by the transcription factor NF-κB.
(§3) This reporter gene allows the monitoring of signaling through the TLR, based on the activation of NF-κB. The compounds are evaluated at one concentration and compared to control ligands. This step is performed in triplicate.

Experiment [2] concerns the target T2, human TLR7 (Homo sapiens, UniProt Q9NYK1).
T2 construct: expressed in transfected cells; host or cells: HEK293
T2 sequence (Q9NYK1 27-1049): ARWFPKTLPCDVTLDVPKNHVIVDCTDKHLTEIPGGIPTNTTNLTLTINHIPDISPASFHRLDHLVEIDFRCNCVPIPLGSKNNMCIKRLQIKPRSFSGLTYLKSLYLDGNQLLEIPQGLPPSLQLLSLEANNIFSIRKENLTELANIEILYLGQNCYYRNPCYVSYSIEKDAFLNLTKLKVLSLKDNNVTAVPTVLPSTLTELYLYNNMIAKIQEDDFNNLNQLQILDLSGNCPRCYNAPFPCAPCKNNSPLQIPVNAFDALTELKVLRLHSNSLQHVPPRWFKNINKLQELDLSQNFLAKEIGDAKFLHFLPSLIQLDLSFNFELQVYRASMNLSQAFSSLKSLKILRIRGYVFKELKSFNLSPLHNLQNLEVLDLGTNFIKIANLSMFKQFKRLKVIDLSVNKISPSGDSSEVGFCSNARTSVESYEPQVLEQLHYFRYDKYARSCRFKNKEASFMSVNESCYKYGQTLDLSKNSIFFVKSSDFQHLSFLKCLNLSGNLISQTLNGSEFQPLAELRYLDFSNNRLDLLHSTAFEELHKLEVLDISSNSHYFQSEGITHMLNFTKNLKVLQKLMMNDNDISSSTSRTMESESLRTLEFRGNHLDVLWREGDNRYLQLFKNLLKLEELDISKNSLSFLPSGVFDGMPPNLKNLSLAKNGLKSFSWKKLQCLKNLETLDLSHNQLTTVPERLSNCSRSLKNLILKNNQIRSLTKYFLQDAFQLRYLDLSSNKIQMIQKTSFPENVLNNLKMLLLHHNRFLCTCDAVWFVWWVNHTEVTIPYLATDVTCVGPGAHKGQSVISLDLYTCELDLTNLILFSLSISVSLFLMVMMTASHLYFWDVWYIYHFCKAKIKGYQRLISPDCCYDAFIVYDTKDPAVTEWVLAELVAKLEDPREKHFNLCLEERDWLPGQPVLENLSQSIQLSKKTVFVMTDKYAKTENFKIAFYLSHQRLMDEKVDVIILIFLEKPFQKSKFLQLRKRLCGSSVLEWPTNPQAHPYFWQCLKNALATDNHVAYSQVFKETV
The experiment can be described thus: TLR ligand screening: NF-κB SEAP reporter in HEK293 cells expressing TLR7. Conditions: one concentration: NTR001 10 uM, Inosine 100 uM, triplicate, FIG. 2. The experiment is classed as cell-based. Here is the method:
as §1, §2, §3

Experiment [3] relates to tetanus toxoid vaccine. The experiment can be described thus: PNPi as adjuvant in tetanus toxoid vaccine efficacy study (tetanus toxoid mouse model). The experiment is classed as in vivo, mice. The conditions noted are these: compared to vehicle treated group. Here is the method:
This Example Evaluates PNPi as an Adjuvant in Tetanus Toxoid Vaccine Efficacy Study.
Method: Tetanus toxoid (TT) was used to vaccinate mice thrice, two weeks apart. Mice were treated by oral administration of compounds NTR001 and NTR002 and serum was collected at various time points for antibody titer and interferon-g analysis. Mice in Groups 2-6 (Table 2) are vaccinated subcutaneously with 0.1 ml tetanus toxoid vaccine on DAYS 0, 14 and 28. Mice in Group 1 (Table 1) received no vaccine. Antibody titers for DAYS 38 are determined by ELISA using tetanus toxoid coated microtiter plates and anti-mouse conjugate. Sera from DAY 30 are assayed by ELISA for interferon-g.

Experiment [4] relates to B16 tumors. The experiment can be described thus: PNPi as anticancer agent in mouse melanoma model. It is filed as in vivo, C57BL/6 mice. The procedure:
Evaluation of PNPi as Anticancer Agent in Mouse Melanoma Model.
Treatment with the NTR001 was initiated on day 6 after injection of tumor cells. Tumor volume and survival were recorded every 3-4 days.

In experiment [5] the test system is B16 tumors. The conditions noted are these: NTR001 60 mg/kg PO; CTLA4-Ab 100, 50, 50 ug IP; days 0, 3 and 6; FIG. 11.
Experiment [6] relates to L. monocytogenes (ATCC Strain35152, hemolytic substrain). Conditions: 30 mg/kg PO or IP, or 2 mg/kg drinking water; 1×10^6 CFU i.v.; FIGS. 7 and 9.

Like-named read-outs stand apart in the source and are kept apart here.

Consider `O=c1[nH]cnc2c([C@@H]3N[C@H](CO)[C@@H](O)[C@H]3O)c[nH]c12` [NTR001, 7-[(2S,3S,4R,5R)-3,4-dihydroxy-5-(hydroxymethyl)-2-pyrrolidinyl]-1,5-dihyro-4-H-pyrrolo-[3,2-d]pyrimidin-4-one], for which the “stimulatory effect on human TLR3 (NF-κB activation)” value in experiment [1] is “do not exhibit a stimulatory effect”. For the same molecule, the “stimulatory effect on human TLR7 (NF-κB activation)” value in experiment [2] is given as “do not exhibit a stimulatory effect”. Also, the serum interferon-g levels entry in experiment [3] (day 30, ELISA, high dose group 60 mg/kg p.o., FIG. 4) was “elevated”. In addition, the “serum tetanus toxoid antibody titers” value in experiment [3] (day 38, ELISA, p.o. 30 mg/kg (6 days of treatment) and 60 mg/kg (3 days of treatment), FIG. 3) was “significantly elevated”. Moreover, the survival in experiment [4] (NTR001 as single agent (30 mg/kg PO week on/off; 5 mg/kg drinking water 28 days), FIG. 6) is recorded as 0-20%. In addition, the tumor volume entry is given as “significant decrease” in experiment [4] (NTR001 treatment initiated day 6 after tumor cells, 30 mg/kg PO week on/off or 5 mg/kg drinking water, FIG. 5) and “decrease in tumor volume but was not statistically significant” in experiment [5]. Moreover, in experiment [6], the weight loss entry is on record as “significant decrease”.
As to `OC[C@H]1O[C@@H](n2cnc3c(O)ncnc32)[C@H](O)[C@@H]1O` [Inosine, inosine], the “stimulatory effect on human TLR3 (NF-κB activation)” value in experiment [1] is “do not exhibit a stimulatory effect”. Further, the “stimulatory effect on human TLR7 (NF-κB activation)” value in experiment [2] was “do not exhibit a stimulatory effect”.
